In article PMC10002984, “Dual PTP1B/TC-PTP Inhibitors: Biological Evaluation of 3-(Hydroxymethyl)cinnoline-4(1H)-Ones” (International Journal of Molecular Sciences, 2023):

What was measured:
[1] = target: T1, human recombinant TC-PTP protein (Homo sapiens, UniProt P17706); experiment: Phosphatase activity assay with DiFMUP, TC-PTP inhibition; assay type: biochemical; conditions: DiFMUP 35 µM, 80 ng/mL TC-PTP, compounds 0.1–80 μM; M ± SEM (n = 24); read-out: IC50 for the inhibitory effect on TC-PTP activity
T1 construct: purchased Sigma-Aldrich SRP0218
T1 sequence (P17706 1-415): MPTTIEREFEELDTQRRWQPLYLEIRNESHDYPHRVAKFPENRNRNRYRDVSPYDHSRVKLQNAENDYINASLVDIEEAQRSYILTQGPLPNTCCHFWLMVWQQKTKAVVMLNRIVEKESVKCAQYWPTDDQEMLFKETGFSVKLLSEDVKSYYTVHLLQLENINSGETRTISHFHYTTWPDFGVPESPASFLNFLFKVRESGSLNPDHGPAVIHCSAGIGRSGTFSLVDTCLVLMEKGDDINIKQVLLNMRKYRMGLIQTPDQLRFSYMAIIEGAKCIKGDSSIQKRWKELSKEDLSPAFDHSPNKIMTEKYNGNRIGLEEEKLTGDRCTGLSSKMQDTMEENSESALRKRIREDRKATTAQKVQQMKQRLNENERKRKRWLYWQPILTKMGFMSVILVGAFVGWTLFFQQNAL
Method: (§1) The measurement of the activity of the phosphatases PTP1B and TC-PTP and their inhibition was carried out using 6,8-difluoro-4methylumbelliferyl phosphate (DiFMUP), as previously described. The stock solution of recombinant human PTP1B protein (#ab51277, Abcam, Cambridge, UK), at a concentration of 1 µg/µL, was prepared in 25 mM Tris–HCl (pH 7.5), 20% glycerol, 2 mM β-mercaptoethanol, 1 mm EDTA, and 1 mM DTT, and stored at −20 °C. Active human recombinant TC-PTP protein was purchased from Sigma-Aldrich (#SRP0218, Saint Louis, MO, USA) as the aqueous buffer solution at a concentration of 2.9 mg/mL, and aliquots were stored at −80 °C. The fluorogenic substrate DiFMUP (#D6567, Molecular Probes, Thermo Fisher Scientific, Waltham, MA, USA) was dissolved at a concentration of 10 mM in N,N-dimethylformamide and stored in aliquots at −20 °C. The 6,8-difluoro-7-hydroxy-4-methylcoumarin (DiFMU, #D6566, Molecular Probes, Thermo Fisher Scientific, Waltham, MA, USA) was used as a reference fluorescent standard. For the IC50 determination, the assay was carried out in black flat bottom 96-well plates using a reaction volume of 100 µL. The phosphatases (PTP1B or TC-PTP) were preincubated with the tested compounds (0.1–80 µM) in 50 mM HEPES (pH 6.9), 100 mM NaCl, 1 mM EDTA, 2 mM DTT, 0.1 mg/mL BSA for 5 min at 37 °C. The following concentrations of the compounds were studied: 0.1, 0.2, 0.5, 1, 2, 5, 10, 20, 40, and 80 μM. The reactions were initiated by the addition of the fluorogenic substrate DiFMUP and diluted in the assay buffer. Progress curves for hydrolysis reaction were obtained with 25 µM of DiFMUP for 80 ng/mL PTP1B, and 35 µM of DiFMUP for 80 ng/mL TC-PTP. Fluorescence excitation of hydrolyzed DiFMUP and the fluorescent standard DiFMU was monitored at 355 nm and emission was detected at 460 nm for 6–10 min at 30 s intervals in a Fluoroskan Ascent FL microplate reader (Thermo Electron Corporation, Vantaa, Finland). Initial velocities of the reactions were used to calculate the IC50 values using GraphPad Prism.
(§2) The data on food intake, body weight, and biochemical parameters in rats, as well as the PCR data, were analyzed using the IBM SPSS Statistics 22 software (“IBM”, Armonk, NY, USA), and the results are presented as mean ± standard error of the mean (M ± SEM). All differences are considered significant at p < 0.05. The calculation of the IC50 values of the studied inhibitors for the initial velocities of enzymatic reactions (PTP1B, TC-PTP) was carried out using the nonlinear regression analysis with GraphPad Prism 8 (“GraphPad Software, Inc.”, Boston, MA, USA). The statistical analysis was carried out using the Wilcoxon test for pairwise comparison and Dunn’s test for multiple comparisons.

[2] = target: T2, recombinant human PTP1B protein (Homo sapiens, UniProt P18031); experiment: Phosphatase activity assay with DiFMUP, PTP1B inhibition; assay type: biochemical; conditions: for IC50: DiFMUP 25 µM, 80 ng/mL PTP1B, compounds 0.1–80 μM, M ± SEM (n = 24), read-out: IC50 for the inhibitory effect on PTP1B activity
T2 construct: purchased Abcam ab51277
T2 sequence (P18031 1-321 limits assumed): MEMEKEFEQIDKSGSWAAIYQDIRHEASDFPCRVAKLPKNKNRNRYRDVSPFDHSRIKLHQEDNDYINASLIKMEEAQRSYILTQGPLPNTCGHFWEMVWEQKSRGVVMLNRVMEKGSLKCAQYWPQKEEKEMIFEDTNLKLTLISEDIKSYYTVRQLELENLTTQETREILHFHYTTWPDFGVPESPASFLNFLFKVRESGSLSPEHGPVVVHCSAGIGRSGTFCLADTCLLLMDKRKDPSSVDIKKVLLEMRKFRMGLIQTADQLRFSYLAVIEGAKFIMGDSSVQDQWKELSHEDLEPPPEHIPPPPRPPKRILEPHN
Method: as §1, §2

| IC50 [1] [µM] | IC50 [2] [µM] | selectivity for PTP1B compared to that for TC-PTP ([2]; from IC50 values of Table 1) | SMILES |
| --- | --- | --- | --- |
| 18.9 ± 2.06 | 3.78 ± 0.34 | 5–7 fold | O=c1c(CO)n[nH]c2ccccc12 [Compound 1] |
| 2.98 ± 0.76 | 5.11 ± 0.57 | – | O=c1c(CO)n[nH]c2ccc(Cl)cc12 [Compound 3, 6-Chloro-3-(hydroxymethyl)cinnolin-4(1H)-one] |
| 26.5 ± 4.66 | 11 ± 1.34 | – | O=c1c(CO)n[nH]c2ccc(Br)cc12 [Compound 4, 6-Bromo-3-(hydroxymethyl)cinnolin-4(1H)-one] |
